# Results: PubChem BioAssay AID334 (DTP/NCI, 2004)
# Values joined by “and” are separate entries in the source; they are usually repeats but may differ in a detail not shown here. Identical values can stand only once. Inconclusive results and toxic doses are left out.
# Test system: CD2F1 mice, intracerebral P388 leukemia, median survival T/C%
# Assay: NCI In Vivo Anticancer Drug Screen. Data for tumor model P388 Leukemia (intracerebral) in CD2F1 (CDF1) mice
# Details: endpoint: median survival time, higher = longer survival
# Procedure: The antitumor activity of compounds was measured in mice bearing transplantable tumors. Survival or tumor size were measured and the results are expressed as the measurement made in the treated group (T) divided by the measurement made in the vehicle treated control group (C). The tumor model used in this assay is P388 Leukemia (intracerebral) in CD2F1 (CDF1) mice
# [1] = dose: 6.25 mg/kg/injection, schedule: Q01DX009 (ip), vehicle: saline with Tween-80
# [2] = dose: 12.5 mg/kg/injection, schedule: Q01DX009 (ip), vehicle: saline with Tween-80
# [3] = dose: 25.0 mg/kg/injection, schedule: Q01DX009 (ip), vehicle: saline with Tween-80
# [4] = dose: 50.0 mg/kg/injection, schedule: Q01DX009 (ip), vehicle: saline with Tween-80
compound,measurement,setting,value
NC(C/[N+]([O-])=N/O)C(=O)O (configuration not stated),T/C,"dose: 7.02 mg/kg/injection, schedule: Q01DX009 (ip), vehicle: saline with Tween-80",90 % of control
same,T/C,"dose: 7.02 mg/kg/injection, schedule: Q01DX009 (ip), vehicle: saline",110 % of control
same,T/C,"dose: 14.06 mg/kg/injection, schedule: Q01DX009 (ip), vehicle: saline with Tween-80",98 % of control
same,T/C,"dose: 14.06 mg/kg/injection, schedule: Q01DX009 (ip), vehicle: saline",99 % of control
same,T/C,"dose: 28.12 mg/kg/injection, schedule: Q01DX009 (ip), vehicle: saline with Tween-80",95 % of control
same,T/C,"dose: 28.12 mg/kg/injection, schedule: Q01DX009 (ip), vehicle: saline",108 % of control
same,T/C,"dose: 56.25 mg/kg/injection, schedule: Q01DX009 (ip), vehicle: saline with Tween-80",106 % of control
same,T/C,"dose: 56.25 mg/kg/injection, schedule: Q01DX009 (ip), vehicle: saline",108 % of control and 112 % of control
same,T/C,"dose: 112.5 mg/kg/injection, schedule: Q01DX009 (ip), vehicle: saline with Tween-80",96 % of control
O=NN(CCCl)C(=O)NCCCl,T/C,"dose: 8.0 mg/kg/injection, schedule: Q01DX005 (iv), vehicle: saline + alcohol",160 % of control
same,T/C,"dose: 30.0 mg/kg/injection, schedule: Q01DX001 (ip), vehicle: saline + alcohol",202 % of control
same,T/C,"dose: 40.0 mg/kg/injection, schedule: Q01DX001 (ip), vehicle: saline + alcohol",202 % of control
C[C@]1(O)CC[C@H]2[C@@H]3CCC4=CC(=O)CC[C@]4(C)[C@@]3(F)[C@@H](O)C[C@@]21C,T/C,"dose: 8.0 mg/kg/injection, schedule: Q01DX009 (ip), vehicle: saline with Tween-80",100 % of control and 105 % of control
same,T/C,"dose: 16.0 mg/kg/injection, schedule: Q01DX009 (ip), vehicle: saline with Tween-80",91 % of control and 109 % of control
same,T/C,"dose: 32.0 mg/kg/injection, schedule: Q01DX009 (ip), vehicle: saline with Tween-80",96 % of control and 106 % of control
same,T/C,"dose: 64.0 mg/kg/injection, schedule: Q01DX009 (ip), vehicle: saline with Tween-80",95 % of control and 104 % of control
same,T/C,"dose: 128.0 mg/kg/injection, schedule: Q01DX009 (ip), vehicle: saline with Tween-80",91 % of control and 104 % of control
same,T/C,"dose: 256.0 mg/kg/injection, schedule: Q01DX009 (ip), vehicle: saline with Tween-80",96 % of control and 106 % of control
same,T/C,"dose: 512.0 mg/kg/injection, schedule: Q01DX009 (ip), vehicle: saline with Tween-80",89 % of control and 104 % of control
N=[N+]=CC(=O)CCC(NC(=O)C(CCC(=O)C=[N+]=N)NC(=O)CCC(N)C(=O)O)C(=O)O (configuration not stated),T/C,"dose: 0.05 mg/kg/injection, schedule: Q01DX005 (ip), vehicle: Klucel (hydroxypropylcellulose) (HPC)",106 % of control
same,T/C,"dose: 0.1 mg/kg/injection, schedule: Q01DX005 (ip), vehicle: Klucel (hydroxypropylcellulose) (HPC)",96 % of control and 104 % of control
same,T/C,"dose: 0.2 mg/kg/injection, schedule: Q01DX005 (ip), vehicle: Klucel (hydroxypropylcellulose) (HPC)",100 % of control and 103 % of control
same,T/C,"dose: 0.4 mg/kg/injection, schedule: Q01DX005 (ip), vehicle: Klucel (hydroxypropylcellulose) (HPC)",100 % of control and 105 % of control
CCN(CC)c1ccc2cc3ccc(=[N+](CC)CC)cc-3oc2c1,T/C,"dose: 4.0 mg/kg/injection, schedule: Q01DX005 (ip), vehicle: suspension in saline",102 % of control
same,T/C,"dose: 8.0 mg/kg/injection, schedule: Q01DX005 (ip), vehicle: suspension in saline",103 % of control
CN(Cc1cnc2nc(N)nc(N)c2n1)c1ccc(C(=O)N[C@@H](CCC(=O)O)C(=O)O)cc1,T/C,"dose: 0.38 mg/kg/injection, schedule: Q01DX009 (ip), vehicle: olive oil, sesame oil, peanut oil",110 % of control
same,T/C,"dose: 0.38 mg/kg/injection, schedule: Q01DX009 (ip), vehicle: saline",110 % of control
same,T/C,"dose: 0.75 mg/kg/injection, schedule: Q01DX009 (ip), vehicle: sodium bicarbonate",112 % of control
same,T/C,"dose: 0.75 mg/kg/injection, schedule: Q01DX009 (ip), vehicle: suspension in saline",123 % of control and 106 % of control
same,T/C,"dose: 1.2 mg/kg/injection, schedule: Q04DX003 (ip), vehicle: saline",105 % of control
same,T/C,"dose: 1.5 mg/kg/injection, schedule: Q01DX009 (ip), vehicle: sodium bicarbonate",112 % of control
same,T/C,"dose: 1.5 mg/kg/injection, schedule: Q01DX009 (ip), vehicle: suspension in saline",96 % of control and 100 % of control
same,T/C,"dose: 2.3 mg/kg/injection, schedule: Q01DX009 (ip), vehicle: sodium bicarbonate",112 % of control
same,T/C,"dose: 2.3 mg/kg/injection, schedule: Q01DX009 (ip), vehicle: suspension in saline",113 % of control and 103 % of control
same,T/C,"dose: 2.3 mg/kg/injection, schedule: Q04DX003 (ip), vehicle: saline",100 % of control
same,T/C,"dose: 3.4 mg/kg/injection, schedule: Q01DX009 (ip), vehicle: sodium bicarbonate",116 % of control
same,T/C,"dose: 3.4 mg/kg/injection, schedule: Q01DX009 (ip), vehicle: suspension in saline",120 % of control and 122 % of control
same,T/C,"dose: 4.6 mg/kg/injection, schedule: Q04DX003 (ip), vehicle: saline",110 % of control
same,T/C,"dose: 9.2 mg/kg/injection, schedule: Q04DX003 (ip), vehicle: saline",100 % of control
same,T/C,"dose: 18.4 mg/kg/injection, schedule: Q04DX003 (ip), vehicle: saline",115 % of control
same,T/C,"dose: 36.8 mg/kg/injection, schedule: Q04DX003 (ip), vehicle: saline",95 % of control
Cc1cc(OCc2nc(N)nc(N)c2-c2ccc(Cl)c(Cl)c2)ccc1NS(=O)(=O)c1cccc(S(=O)(=O)F)c1,T/C,"dose: 117.0 mg/kg/injection, schedule: Q04DX003 (ip), vehicle: saline",100 % of control
same,T/C,"dose: 176.0 mg/kg/injection, schedule: Q04DX003 (ip), vehicle: saline",100 % of control
same,T/C,"dose: 264.0 mg/kg/injection, schedule: Q04DX003 (ip), vehicle: saline",111 % of control
same,T/C,"dose: 400.0 mg/kg/injection, schedule: Q04DX003 (ip), vehicle: saline",111 % of control
CN=S(=O)(OCCCCCOS(=O)(=NC)c1ccccc1)c1ccccc1 (configuration not stated),T/C,[1],107 % of control
same,T/C,[2],100 % of control
same,T/C,[3],101 % of control
same,T/C,[4],102 % of control
same,T/C,"dose: 100.0 mg/kg/injection, schedule: Q01DX009 (ip), vehicle: saline with Tween-80",102 % of control
CC[C@]1(O)C[C@H]2CN(CCc3c([nH]c4ccccc34)[C@@](C(=O)OC)(c3cc4c(cc3OC)N(C=O)[C@H]3[C@@](O)(C(=O)OC)[C@H](OC(C)=O)[C@]5(CC)C=CCN6CC[C@]43[C@@H]65)C2)C1,T/C,"dose: 0.2 mg/kg/injection, schedule: Q04DX003 (ip), vehicle: water",111 % of control
same,T/C,"dose: 0.4 mg/kg/injection, schedule: Q04DX003 (ip), vehicle: water",106 % of control
same,T/C,"dose: 0.8 mg/kg/injection, schedule: Q04DX003 (ip), vehicle: water",116 % of control
same,T/C,"dose: 1.6 mg/kg/injection, schedule: Q04DX003 (ip), vehicle: water",109 % of control
same,T/C,"dose: 3.2 mg/kg/injection, schedule: Q04DX003 (ip), vehicle: water",106 % of control
CN(CO)c1nc(N(C)CO)nc(N(C)CO)n1,T/C,"dose: 3.12 mg/kg/injection, schedule: Q01DX009 (ip), vehicle: saline with Tween-80",98 % of control
same,T/C,[1],106 % of control
same,T/C,[2],100 % of control and 101 % of control
same,T/C,[3],116 % of control and 104 % of control
same,T/C,"dose: 50.0 mg/kg/injection, schedule: Q01DX009 (ip), vehicle: Klucel (hydroxypropylcellulose) (HPC)",115 % of control and 93 % of control
same,T/C,[4],103 % of control and 106 % of control
same,T/C,"dose: 100.0 mg/kg/injection, schedule: Q01DX009 (ip), vehicle: Klucel (hydroxypropylcellulose) (HPC)",121 % of control and 112 % of control
CCC1=C(c2ccc(OC)cc2)CCC(C(=O)O)C1C (configuration not stated),T/C,"dose: 4.0 mg/kg/injection, schedule: Q01DX005 (ip), vehicle: saline",99 % of control and 104 % of control
same,T/C,"dose: 8.0 mg/kg/injection, schedule: Q01DX005 (ip), vehicle: saline",95 % of control and 100 % of control
same,T/C,"dose: 16.0 mg/kg/injection, schedule: Q01DX005 (ip), vehicle: saline",90 % of control and 98 % of control
same,T/C,"dose: 32.0 mg/kg/injection, schedule: Q01DX005 (ip), vehicle: saline",96 % of control and 102 % of control
CC1(C)N=C(N)N=C(N)N1c1ccc(CCC(=O)Nc2ccc(S(=O)(=O)F)cc2)cc1,T/C,"dose: 50.0 mg/kg/injection, schedule: Q01DX009 (ip), vehicle: saline",111 % of control
same,T/C,"dose: 100.0 mg/kg/injection, schedule: Q01DX009 (ip), vehicle: saline",100 % of control
NC(CSC(c1ccccc1)(c1ccccc1)c1ccccc1)C(=O)O (configuration not stated),T/C,"dose: 32.0 mg/kg/injection, schedule: Q01DX005 (ip), vehicle: Klucel (hydroxypropylcellulose) (HPC)",99 % of control and 106 % of control
same,T/C,"dose: 64.0 mg/kg/injection, schedule: Q01DX005 (ip), vehicle: Klucel (hydroxypropylcellulose) (HPC)",102 % of control and 110 % of control
same,T/C,"dose: 128.0 mg/kg/injection, schedule: Q01DX005 (ip), vehicle: Klucel (hydroxypropylcellulose) (HPC)",114 % of control and 100 % of control
same,T/C,"dose: 256.0 mg/kg/injection, schedule: Q01DX005 (ip), vehicle: Klucel (hydroxypropylcellulose) (HPC)",121 % of control
